Where a name gives a salt, the structure may show the parent alone.
Experiments:
[1] = test system: Abelson 8.1 lymphoma; experiment: Tumor Cell Cytotoxicity test (TCC test), Abelson 8.1 lymphoma; type: cell-based; conditions: 5 μg, 72 hours; alkaline phosphatase assay
Method: (§1) As indicated above, all of the compounds of formula I are anti-tumor agents and are, therefore, useful in inhibiting the growth of various lymphomas, sarcomas, myelomas and leukemia cell lines.
(§2) In flat bottom microtiter plates (Nunc Roskilde, Denmark) were placed Abelson 8.1 lymphoma, YAC, L1210, P815, Meth A fibrosarcoma or fresh human neuroblastoma tumor cells in DMEM+10% fetal calf serum and the tumor cell-containing plates were incubated with 1,3 and 5 μg of the test compound for a period of 6 to 72 hours. The number of tumor cells present in the Abelson 8.1, YAC, L1210 and P815 assays was determined by measuring the alkaline phosphatase as follows:
(§3) The tumor cell plates were centrifuged (500×g) for ten minutes and the supernatant flicked off. Without further washing, 100 μl of buffer containing 20 μl of diethanolamine, 2 μM of MgCl2.6H2 O, 2.5 μM of p-nitrophenylphosphate and 10 mg Triton X-100 were added. The samples were incubated for 60 minutes at room temperature and the enzymatic reaction was terminated by the addition of 100 μl of 0.5N NaOH. The absorbance was then measured at 405 nm using a Titertek Multiskan apparatus.
(§4) At a concentration of 5 μg and an incubation period of 72 hours, the following results were obtained: […]

[2] = test system: YAC; experiment: Tumor Cell Cytotoxicity test (TCC test), YAC; type: cell-based; conditions: 5 μg, 72 hours; alkaline phosphatase assay
Method: as §1, §2, §3, §4

[3] = test system: Abelson 8.1 tumor cells; experiment: Influence on Cytotoxicity of ET-18-OCH3 test; type: cell-based; conditions: 5 μg test compound, 72 hours; mouse bone marrow cell macrophages preincubated with 10 μg ET-18-OCH3 for 24 hours; ET-18-OCH3 alone set at 100%
Method: Bone marrow cell macrophages (10^5 /well) obtained from [BALB/CX57/BL6 ]Fl mice were incubated with 10 μg of 1-octadecyl-2-methoxy-3-phosphoryl choline (ET-18-OCH3) for 24 hours in flat bottom microtiter plates (Nunc Roskilde, Denmark), after which time they are centrifuged and washed once. Abelson 8.1 tumor cells in DMEM+10% fetal calf serum and 1,3 and 5 μg of the test compound were then added to the plates. With the cytotoxicity of ET-18-OCH3 (10 μg) alone set at 100%, the inhibition or enhancement of the cytotoxic effect, as measured by an alkaline phosphatase assay, was determined and values recorded after 72 hours for 1, 3 and 5 .eta.g of the test substance. At a concentration of 5 μg, the following results were obtained: […]

[4] = test system: Meth A sarcoma cells; experiment: Meth A sarcoma implanted in CBF1 mice, tumor growth and survival; type: in vivo; conditions: p.o., 50 μg, 28 days; 7.3×10^6 Meth A sarcoma cells implanted; no control animals survived
From the text: Meth A fibrosarcoma cells were induced in BALB/C mice by administering methylcholanthrene according to the procedure of Old, et al. (L. J. Old, E. A. Boyse, D. A. Clarke, and E. Carswell, Ann. N.Y. Acad. Sci., 101, 80 (1962). These tumor cells were harvested from the peritoneal cavity 10 to 12 days after administration of methylcholanthrene. Ten CBF1 mice of 10-12 week age were each implanted with 7.3×10^6 Meth A sarcoma cells to serve as control. A second group of ten CBF1 mice were each implanted with 7.3×10^6 Meth A sarcoma cells and on day one after implant each mouse was treated p.o. with 5-50 μg of the test compound per day for a total of twenty or twenty-seven days. Tumor growth and survivors were assayed on days 7, 14, 21 and 28 after tumor implantation. Under these conditions, none of the control group animals survived, whereas 5 out of 10 animals which were administered 50 μg of the compound of Example 2 for 28 days survived and 8 out of 10 animals which were administered 50 μg of the compound of Example 5 for 28 days survived.

[5] = test system: Meth A fibrosarcoma; experiment: Tumor Cell Cytotoxicity test (TCC test), Meth A fibrosarcoma; type: cell-based; conditions: 5 μg, 72 hours; 3H-thymidine uptake
Method: as §1, §2
(§5) The number of tumor cells present in the Meth A fibrosarcoma and human neuroblastoma assays was measured by ^3 H-thymidine uptake as follows:
(§6) After 72 hours, the cells are thoroughly washed, and each well treated with ca. 0.1 μC ^3 H-thymidine. After 4-6 hours, the cells are collected using a commercial cell harvester, and the radioactivity in the […] is measured in a scintillation counter.
as §4

[6] = test system: human neuroblastoma tumor cells; experiment: Tumor Cell Cytotoxicity test (TCC test), fresh human neuroblastoma tumor cells; type: cell-based; conditions: 5 μg, 72 hours; 3H-thymidine uptake
Method: as §1, §2, §5, §6, §4

[7] = test system: L1210; experiment: Tumor Cell Cytotoxicity test (TCC test), L1210; type: cell-based; conditions: 5 μg, 72 hours; alkaline phosphatase assay
Method: as §1, §2, §3, §4

[8] = test system: P815; experiment: Tumor Cell Cytotoxicity test (TCC test), P815; type: cell-based; conditions: 5 μg, 72 hours; alkaline phosphatase assay
Method: as §1, §2, §3, §4

Compound | % Inhibition Abel. [1] | % Inhibition YAC [2] | % Enhancement (of the cytotoxic effect of ET-18-OCH3) [3] | animals survived [4] | % Inhibition Meth A [5] | % Inhibition neuro. [6] | % Inhibition L1210 [7] | % Inhibition P815 [8]
CCCCCCCCCCCCCCCCCCOCC1(COP(=O)([O-])OCC[N+](C)(C)C)CCCO1 (stereo not shown) [Example 5, 2-[(2-octadecyloxymethyltetrahydro-2-furanylmethoxy)-hydroxyphoshphinyloxyl]-N,N,N-trimethylethanaminium hydroxide inner salt-4-oxide] | 98% | 96% | > 90% | 8 out of 10 | – | – | – | –
CCCCCCCCCCCCCCCCCCC1(COP(=O)([O-])OCC[N+](C)(C)C)CCC(=O)O1 (stereo not shown) [Example 2, 2-[hydroxy(tetrahydro)-2-(octadecyl-5-oxo-2-furanyl)methoxyphosphinyloxy]-N,N,N-trimethyl-ethanaminium hydroxide, inner salt-4-oxide] | 97% | 71% | 99.5% | 5 out of 10 | 98% | 59% | 69% | 84%
CCCCCCCCCCCCCCCCCCC1(COP(=O)([O-])OCC[N+](C)(C)C)CCOC1 (stereo not shown) [Example 7, 2-[(3-octadecyltetrahydro-3-furanylmethoxy)-hydroxyphosphinyloxy]-N,N,N-trimethyl ethanaminium hydroxide, inner salt-4-oxide] | 70-90% | – | 90% | – | – | – | – | –
CCCCCCCCCCCCCCCCCCC1(COP(=O)([O-])OCC[N+](C)(C)C)COC(=O)C1 (stereo not shown) [Example 6, 2-[hydroxy(tetrahydro)-3-(octadecyl-5-oxo-3-furanyl)methoxyphosphinyloxy]-N,N,N-trimethyl ethanaminium hydroxide, inner salt-4-oxide] | 50-70% | – | 90% | – | – | – | – | –

— patent US4673672A, “Substituted-[hydroxy(tetrahydro)-5-oxo-(2- and 3-furanyl or 2-thienyl)alkoxyphosphinyloxy]-alkanaminium hydroxide, inner salt oxides” (Sandoz Pharmaceuticals Corp., priority 1986, dated 1987)
